Data as given in ChEMBL document CHEMBL3507680, “University of Dundee, Gates Library screen for HepG2 cell viability”.

Assay: Human HepG2 cell viability assay in 384 well format
Format: toxicity, cell-based
Set-up: dose 125 nL, time 70.5 hour; concentration not given beside the values
Conditions: HepG2 cells, read-out: Inhibition

| SMILES | cytotoxicity at 70.5 h |
| --- | --- |
| CCCN1CCC(C(=O)NCCN(CC)c2ccccc2C)CC1 | 17.6% |
| Cc1nc(CN(C)C2CCN(CC3CCCC3)C2)no1 (configuration not stated) | -1.44% |
| Cc1cccc(N2CCC(N3CCCC4(CNC(=O)O4)C3)CC2)c1C (configuration not stated) | -7.33% |
| O=C(NCC1CCOC1)Nc1ccc(Oc2cccc(F)c2)nc1 (configuration not stated) | -10.7% |
| COc1cc2ccn(CCCO)c(=O)c2cc1F | -6.17% |
| CC(C)Cc1cn(C2CCN(C(C)CC3CC3)CC2)nn1 (configuration not stated) | -0.853% |
| CN(C)c1ncnc2c1CCN(CC1CCOCC1)CC2 | -15% |
| O=C(CS(=O)(=O)Cc1csc(-c2ccc(F)cc2)n1)NCC1CC1 | -6.8% |
| COc1ccc(Cl)cc1NCC(=O)NCCNc1cnccn1 | -10.9% |
| Cc1cc(C)n(CCN(C)Cc2c[nH]nc2-c2ccc3c(c2)OCO3)n1 | -5.98% |
| COCCN1C[C@@H]2[C@@H](OC)CCN(S(=O)(=O)c3cccnc3)[C@@H]2C1 | -12.3% |
| COc1ccccc1-c1nc(C(=O)N2CCOCC2)n2ccncc12 | -9.1% |
| CN(Cc1ncnn1C1Cc2ccccc2C1)C1CCS(=O)(=O)C1 (configuration not stated) | -2.74% |
| O=S(=O)(c1ccc(F)cc1)N1CCN(CCCn2ccnc2)CC1 | -1.51% |
| CCC(=O)N1CCCC1c1csc(Nc2cnccn2)n1 (configuration not stated) | -9.64% |
| Cc1cccc(CN2CCS(=O)(=O)[C@@H]3CCN(C(=O)C4CC4)CC[C@@H]32)n1 | 15.9% |
| O=C1[C@H]2CN(S(=O)(=O)C3CC3)C[C@H]2CN1CC1CC1 | 0.281% |
| Cc1cccc(CC(=O)NCCCOC(C)C)c1 | -10.5% |
| CC(C)(C)c1nnc(CN2CCOC(Cn3cncn3)C2)o1 (configuration not stated) | -1.42% |
| Cc1cc(CN2CCc3nc(-c4ccncc4)nc(O)c3CC2)c(C)s1 | -7.8% |
| CCc1nnc(C(C)N(C)Cc2c(C)nn(-c3ccccc3)c2C)o1 (configuration not stated) | -1.32% |
| CNC(=O)C1CN(c2cc(C)ncn2)CCN1Cc1ccccc1 (configuration not stated) | 21.6% |
| CC1CN(CC(=O)N2CCCC2)CCN1c1ccc2nncn2n1 (configuration not stated) | 4.7% |

| SMILES | cytotoxicity at 70.5 h |
| --- | --- |
| Cc1nnc(N2C[C@H](OCc3ccncc3)[C@H]3OCCC[C@H]32)s1 | -4.47% |
| CS(=O)(=O)N1C[C@H]2N(c3ncccn3)CCC[C@@]2(C(=O)NCC2CC2)C1 | -7.17% |
| Cc1nc(C2CCCN(C(=O)CCCOc3cccc(F)c3)C2)no1 (configuration not stated) | -16.6% |
| CCOCCN1CCN(CCC(=O)N2CCCCC2)CC1 | -8.84% |
| CCCn1cc(Cl)c(C(=O)N2C[C@H]3C[C@H](OC)C[C@H]3C2)n1 | 3.23% |
| CC(=O)NCC1CCN(c2cc(C(C)C)nc3ccnn23)CC1 | -9.59% |
| Cc1ccc(-c2cc(CNC(=O)N3CCC(N(C)C)CC3)on2)cc1 | 4.4% |
| O=C(Cn1cccc1)NCC1CCN(Cc2cc3ccccc3[nH]2)C1 (configuration not stated) | -16.5% |
| COC(=O)CNC(=O)c1cn(-c2ccccn2)c(=O)c2ccccc12 | -9.1% |
| CCN1CC[C@@]2(C(=O)N3CCCC3)CCN(S(C)(=O)=O)CC[C@@H]12 | -8.95% |
| Cc1ccc(-c2nc(CNCC3CN(C)CCO3)cs2)o1 (configuration not stated) | 18.6% |
| Cc1cc(CN(C)C(=O)C(c2ccccc2F)N(C)C)ccn1 (configuration not stated) | -7.87% |
| CCOc1ccc(N2CCCN=C2NC(=O)c2cccc(Cl)c2)cc1 | -9.1% |
| Cc1cc(C(=O)N2CCc3ncnc(-c4cnn(C)c4)c3CC2)no1 | 2.85% |
| COCCCOc1ccc(C(=O)N(Cc2cnn(C)c2)C(C)C)cn1 | -7.46% |
| CCN1CCCC12CCN(Cc1cccnc1OC)CC2 | -4.58% |
| CNC(=O)NC1CC2(CCNCC2)c2ccc(C)cc21 (configuration not stated) | 18.2% |
| Cc1ccc(N2CCCC(N(C)Cc3cc(C)no3)C2)nn1 (configuration not stated) | -2.5% |
| CCOCC1CN(Cc2cccnc2OC)Cc2cnn(C)c21 (configuration not stated) | 2.89% |
| c1ccc(CN2CCc3ncnc(N4CCCC4)c3CC2)nc1 | -4.15% |
| Cc1csc(-c2ccc(NC(=O)N3CCOCC3)cc2)n1 | -0.264% |
| c1ccc2c(N3CCSCC3)cnnc2c1 | -3.97% |
| Cc1nc(N2CCCC2)nc2c1CN(C(=O)N1CCOCC1)CC2 | -14.3% |

| SMILES | cytotoxicity at 70.5 h |
| --- | --- |
| CC(C)(C)c1ccc(S(=O)(=O)CCN2CCNC(=O)CC2)cc1 | -10.4% |
| Cc1ccc(N2CCC(C3CCN(CC(C)C)CC3)C2)nn1 (configuration not stated) | -6.28% |
| O=C(NC1CC(=O)N(C2Cc3ccccc3C2)C1)c1csnn1 (configuration not stated) | -1.65% |
| Cc1cc(NCc2ccco2)nc2[nH]nc(N)c12 | -3.79% |
| Cc1c(Cn2cc(Cl)c(N)n2)cnn1C | -13.5% |
| COc1ccc(CCCN(C)C(=O)c2cc(C(C)=O)c[nH]2)cc1OC | -8.38% |
| CN1CCN(Cc2ccc(F)cc2)Cc2cccnc21 | -7.2% |
| O=C(CCn1cccn1)N1C[C@@H]2CC[C@H](C1)N(Cc1ccccn1)C2=O | -2.38% |
| CC(=O)NCCNC(=O)c1ccc(C)c(-n2cccc2)c1 | -10.2% |
| COc1ccccc1C(=O)Nc1nc2c(s1)CN(S(=O)(=O)C1CC1)CC2 | -3.51% |
| CN(CC(=O)NC1CC1)C(=O)c1csc(Br)c1 | -8.41% |
| CN(C)CC1(O)CCCN(C(=O)Cc2ccc(Cl)c(Cl)c2)C1 (configuration not stated) | -2.73% |
| Cc1ccnn1CCC(=O)N1CCOC(CCc2ccccc2)C1 (configuration not stated) | -7.51% |
| COc1cccc(CC(=O)N2CCC(Cc3nnc(SC)n3C)CC2)c1 | -23.6% |
| Cc1ccc(C(=O)N2C[C@@H](NS(C)(=O)=O)[C@H](C(C)C)C2)cc1O | 1.71% |
| CCC1CN(C(=O)c2ncccc2O)CCC(=O)N1Cc1ccccc1 (configuration not stated) | -0.966% |
| COc1ccsc1C(=O)Nc1cc(Cl)c(=O)n(C)c1 | -5.8% |
| CC(C)N(CC1CCCN(CC(N)=O)C1)C(=O)OC(C)(C)C (configuration not stated) | -12.8% |
| Cc1ccc(C(=O)N2Cc3c(CN4CCCCC4)nn(C)c3C2)o1 | 6.3% |
| CC(=O)N1[C@H](Cn2cncn2)C[C@@H]2CN(c3ncccn3)CC[C@@H]21 | 1.33% |
| CCO[C@@H]1CO[C@@]2(CCCN(S(=O)(=O)c3cccnc3)C2)C1 | -17.7% |
| CC(NC(=O)Nc1nccs1)C(=O)NC1CCCC1 (configuration not stated) | 0.896% |
| Cc1cc(CC(=O)NC2CCCN(c3ccccc3Cl)C2=O)n[nH]1 (configuration not stated) | -19% |

| SMILES | cytotoxicity at 70.5 h |
| --- | --- |
| Cn1cc(C(=O)NCCCN2CCCCCC2=O)c(-c2cccnc2)n1 | 11% |
| CC(C)(C)NC(=O)COc1ccc(CNCc2ccccn2)cc1 | 25.3% |
| CCSc1ccccc1C(=O)NCCn1nc(C(F)(F)F)n(C)c1=O | -4.82% |
| Cc1cccnc1NC(=O)c1ccc(-n2cncn2)nn1 | 1.65% |
| O=C(NCCC1=CCCCC1)C1CCCN(c2ccc3nncn3n2)C1 (configuration not stated) | 9.17% |
| Cc1cc(-c2nn3c(C4CC4)nnc3s2)on1 | 12.2% |
| CCn1cnnc1CNC(=O)N1CCN(Cc2ccccc2)CC1 | -1.29% |
| O=C(c1cnccn1)N1C[C@@H](OCc2ccncc2)[C@@H]2OCCC[C@@H]21 | -8.9% |
| Cc1cc(NC(=O)CCn2nc(C)c3ccccc32)n(C(C)C)n1 | -18% |
| CN1CCCC(c2nc3c([nH]2)CC(C)(C)CNC3=O)C1 (configuration not stated) | 13.5% |
| CCC(CO)n1cnc2scc(C)c2c1=O (configuration not stated) | -22.7% |
| Cc1noc([C@H]2C[C@H]3OCC[C@H]3N(Cc3ccncc3)C2)n1 | -7.52% |
| COc1ccc(CCNCc2ccco2)cc1OC | -6.05% |
| CCc1noc(C(C)N2CCN(CCOCC(F)(F)F)CC2)n1 (configuration not stated) | -2.37% |
| CCC[C@H]1CN(C(=O)Cn2ccccc2=O)C[C@@H]1NS(C)(=O)=O | -1.15% |
| Cn1cc(C(=O)Nc2cc(F)ccc2OCC2CCCO2)ccc1=O (configuration not stated) | -7.6% |
| Cc1ccc(NC(=O)C(C)n2ccc(C(F)(F)F)n2)nc1 (configuration not stated) | 1.64% |
| Cc1nn(C)c(C)c1CN(C)C(C(=O)O)c1ccc(F)cc1F (configuration not stated) | -1.85% |
| c1ccc2c(N3CCOC(Cn4cccn4)C3)ncnc2c1 (configuration not stated) | -4.3% |
| c1ccc(CN2CCc3nnc(CN4CCCCC4)n3CC2)nc1 | 3.32% |
| C[C@@H]1CN(C(=O)CCCN2CCOCC2)CC[C@@]1(O)C1CCC1 | -3.73% |
| Cc1nc2c(c(NCCc3nc(C)c(Cl)s3)n1)CCNCC2 | -11% |
| CN(Cc1nnc2n1CCC2)C(=O)c1ccc2c(c1)CCO2 | -3.65% |

| SMILES | cytotoxicity at 70.5 h |
| --- | --- |
| O=C(Nc1cccnc1)N1CCC(n2ccc(C(F)(F)F)n2)CC1 | -3.71% |
| O=C(c1cccc(C2CCNC2)c1)N1CCC(N2CCC(O)CC2)CC1 (configuration not stated) | 44.2% |
| Cc1nc(C(C)(C)C)sc1C(=O)NCCNc1ncccc1C#N | -7.48% |
| Cc1nn(C)c(C)c1C1COCCN1C(=O)c1cnc(N)c(Cl)c1 (configuration not stated) | -3.52% |
| Cc1cc(CS(=O)(=O)C(C)c2ccc(F)cc2)on1 (configuration not stated) | -5.55% |
| O=C(NC1CC1)[C@H]1C[C@H]2OCC[C@H]2N(Cc2ccc3ccccc3n2)C1 | -4.59% |
| Cc1ccc(C(=O)Nc2c(C(=O)N(C)C)nn(C)c2C)cc1 | -4.31% |
| O=C(COCC1CC[C@H]2[C@H](CCN2c2ncccn2)O1)N1CCCC1 (some centres not stated) | -6% |
| Cc1ncccc1CNc1ccc(OCCO)nc1 | -6.19% |
| FC(F)(F)C1CCc2nnc(CNCc3cccs3)n2C1 (configuration not stated) | 24.7% |
| CN(C)CCN1CCOCC2(CCCN(C(=O)Cc3ccccc3)C2)C1 (configuration not stated) | 10.9% |
| CCOC[C@]12COC[C@H]1CN(Cc1cccc(OC)c1)C2 | -5.95% |
| COc1ccc(C(C)NCc2ccsc2)cc1Cn1cccn1 (configuration not stated) | -3.16% |
| Cc1ccc(N2CCN(c3ccccc3C)CC2C)nn1 (configuration not stated) | -0.203% |
| Cc1cnccc1NCCNC1CCSCC1 | -17.3% |
| O=C(c1ccncc1)N1CC[C@@H](O)[C@@H](O)[C@H](N2CCC(F)(F)CC2)C1 | -0.846% |
| CC(NC(=O)NCCCN(C)C)c1ccc2c(c1)CCC(=O)N2 (configuration not stated) | -10.2% |
| CC(C)Oc1ncc(C(=O)N2CCCC(C(=O)O)C2)cc1Cl (configuration not stated) | -7.98% |
| Cc1nn(C)c(C)c1C1CCCN1CC(=O)Nc1ccc(Cl)cn1 (configuration not stated) | 2.19% |
| CSC(C)C(=O)N(C)CCCc1cc(-c2ccccc2)no1 (configuration not stated) | 27.1% |
